# Measurements published in patent publication US20180360845A1, “MUSCARINIC COMBINATION OF A SELECTIVE M2-ANTAGONIST AND A PERIPHERAL NON-SELECTIVE ANTAGONIST FOR TREATING HYPOCHOLINERGIC DISORDERS” (CHASE PHARMACEUTICALS CORPORATION, priority 2015, published 2018).
# Experiments:
# [1] = cited from earlier work
# [2] = Dose-response to otenzepad in a mouse model of diarrhea (fecal pellet count); assay type: in vivo, Male Swiss mice; settings: increasing doses of otenzepad, T0 to T+4 h
# Description: Male Swiss mice (4-6 weeks old), N=10 per treatment group were used, and treated with either vehicle (vehicle group) or increasing doses of otenzepad, a representative M2-antagonist. Mice were randomly assigned to one of two experimental groups (vehicle; or increasing doses of otenzepad). Each animal was identified by its group name, cage number, series (day) of experiment, and number (1 to 10) written with permanent ink on the tail. Mice were placed individually in cages without any bedding materials. During the experiment the number of fecal pellets was counted at different time-points, starting one hour before the time of the administration of the test compound (T0), as outlined below:
# (§1) T−1 h to T0: counting of the accumulated fecal pellets excreted.
# T0: administration of the test compound.
# T0 to T+2 h: counting of the accumulated fecal pellets excreted.
# T+2 h to T+4 h: counting of the accumulated fecal pellets excreted.
# (§2) The total number of fecal pellets for each mouse was counted over time. An analysis of variance (ANOVA) was performed on the results. Fisher's Protected Least Significant Difference was used for pairwise comparisons; p values≤0.05 were considered significant. Grubbs' test (http://www.graphpad.com/quickcalcs/Grubbsl.cfm) was used to detect outliers for each parameter in each experimental group.
# [3] = T-maze continuous alternation task (T-CAT) with solifenacin and otenzepad; assay type: in vivo, Male Swiss mice
# Description: Evaluation of Cognition with Solifenacin and Otenzepad in the T-Maze Alternation Task in Mice The T-maze continuous alternation task (T-CAT) is useful as model for studying compounds with cognitive enhancing properties. The T-maze consists of 2 choice arms and 1 start arm mounted to a square centre. Manual doors are provided to close specific arms during the force choice alternation task. Male Swiss mice (4-6 weeks old), N=10 per treatment group were used, and were pre-treated with: • Solifenacin at the dose that blocked fecal pellet excretion in Experiment 2 of Example 1. […] Mice were randomly assigned to one of the different experimental treatment groups. Each animal was identified by its group name, cage number, series (day) of experiment, and number (1 to 10) written with permanent ink on the tail. The T-maze apparatus is made of gray Plexiglas with a main stem (55 cm long×10 cm wide×20 cm high) and two arms (30 cm long×10 cm wide×20 cm high) positioned at 90 degree angle relative to the main stem. […] The percentage of alternation over the 14 free-choice trials was determined for each mouse and was used as an index of working memory performance. […] The drug-induced improvement of memory was calculated by setting the respective response of the saline/vehicle as 100% and that of the test group as 0% reversion. […]
# [4] = aged memory impaired rats; cited from earlier work
# [5] = traumatic brain-injured rats; cited from earlier work
# [6] = young animals; cited from earlier work
# [7] = cited from earlier work; remark: listed apart in the source
# [8] = clinical study; cited from earlier work
# [9] = cited from earlier work; remark: listed apart in the source
# [10] = in vivo; cited from earlier work
# [11] = in vivo; cited from earlier work; remark: listed apart in the source
# [12] = bilateral intrastriatal infusion, female rats; cited from earlier work
# [13] = transdermal, rats, [14C] label; cited from earlier work
# [14] = Antagonism of otenzepad-induced diarrhea in mice by solifenacin; assay type: in vivo, Male Swiss mice; settings: solifenacin 2 to 40 mg/kg given 30 min before otenzepad
# Description: Male Swiss mice (4-6 weeks old), N=10 per treatment group were used. Animals were pretreated with solifenacin (a representative peripheral muscarinic receptor antagonist) or vehicle; 30 minutes later animals were treated with otenzepad at a dose that caused diarrhea (as determined in Experiment 1). The dose of solifenacin ordinarily ranged from 2 to 40 mg/kg. Mice were placed individually in cages without any bedding materials. During the experiment the number of fecal pellets was counted at different time-points as outlined below:
# as §1
# T0: administration of solifenacin.
# T30 min: administration of vehicle or otenzepad.
# T 30 min to T 2.5 h: counting of accumulated fecal pellets excreted.
# T+2.5 h to T+4.5 h: counting of accumulated fecal pellets excreted.
# as §2, with “comparisons. The” for “comparisons;”, “value≤0.05” for “values≤0.05”, “(http//www at graphpad.com/quickcalcs/Grubbs.cfm)” for “(http://www.graphpad.com/quickcalcs/Grubbsl.cfm)”
# [15] = absorbed amount; cited from earlier work
structure (smiles),measurement,setting,value
"CCN(CC)CC1CCCCN1CC(=O)N1c2ccccc2C(=O)Nc2cccnc21 (racemic) [otenzepad, (±)11-[[2-[(diethylamino)methyl]-1-piperidinyl]acetyl]-5,11-dihydro-6H-pyrido[2,3-b][1,4]benzodiazepin-6-one]","subjects with mild and tolerable adverse events (palpitations, dry mouth, headache)",[1]; 270 to 810 mg/day,about 20%
same,muscarinic adverse effects,"[1]; single oral doses of 120, 240 and 480 mg",does not induce manifest muscarinic adverse effects
same,diarrhea (number of fecal pellets),[2],dose-dependently causes diarrhea
same,"cognition (percentage of alternation, working memory)","[3]; two doses of otenzepad, in the presence of solifenacin",improves cognition in a dose-dependent manner
"CCCC(C)(C)C(=O)N(CC)CCCC1CCN(CC(=O)N2c3ccc(Cl)cc3C(=O)Nc3cccnc32)CC1 [BIBN-99, 5,11-dihydro-8-chloro-11-[[4-[3-[(2,2-dimethyl-1-oxopentyl)ethylamino]propyl]-1-piperidinyl]acetyl]-6H-pyrido[2,3-b][1,4]benzodiazepin-6-one]",impaired ACh release and cognitive deficits,[4],"reverses, in a dose-dependent manner"
same,cognitive deficits,[5],attenuate cognitive deficits
same,scopolamine-induced amnesia,[6],improves scopolamine-induced amnesia
"CCn1nnc(C2=CCCN(C)C2)n1 [Lu 25-109, 5-(2-ethyl-2H-tetrazol-5-yl)-1-methyl-1,2,3,6-tetrahydropyridine]",side effects,"[7]; anorexia, nausea, diarrhea, increased sweating, increased with dose",prominent cholinergic side effects
same,primary and secondary variables versus placebo (antidementia efficacy),"[7]; three doses, 6 months, 496 patients with probable AD",no significant differences
same,fixed-dose Maximum Tolerated Dose,[8],150 mg t.i.d.
"COc1ccc([S+]([O-])c2ccc(C(C#N)N3CCN(C4CCCCC4)CC3)cc2)cc1 (stereo not drawn) [SCH 57790, 4-cyclohexyl-alpha-[4[[4-methoxyphenyl]sulphinyl]-phenyl]-1-piperazineacetonitrile]",brain acetylcholine release,[9]; in vivo,dose-related increase
same,cognitive performance,[9]; rodents and nonhuman primates,enhances cognitive performance
"CCCS(=O)(=O)N1CCC(C)(N2CCN([C@@H](C)c3ccc(S(=O)(=O)c4ccc5c(c4)OCO5)cc3)[C@H](C)C2)CC1 [SCH 72788, 4-[4-[1(S)-[4-[(1,3-benzodioxol-5-yl)sulfonyl]phenyl]ethyl]-3(R)-methyl-1-piperazinyl]-4-methyl-1-(propylsulfonyl)piperidine]",ACh release,[10],increases ACh release
same,activity in a rodent model of cognition,[10],active
"Cc1cccc(C(=O)N2CCC(N3CCC(C4(c5ccc(S(=O)(=O)c6cccc(Cl)c6)cc5)OCCO4)CC3)CC2)c1N [SCH-217443, 1′-(2-amino-3-methylbenzoyl)-4-[[[(3-chlorophenyl)sulfonyl]phenyl]ethylenedioxymethyl]-1,4′-bipiperidine]",activity in a rat model of cognition,[11],shows activity
"COc1ccccc1CNCCCCCCNCCCCCCCCNCCCCCCNCc1ccccc1OC [methoctramine, N,N′-bis[6-[(2-methoxybenzyl)amino]hexyl]-1,8-octanediamine]",procedural memory performance,[12],improves procedural memory performance
"CCN(CC)CC#CCOC(=O)C(O)(c1ccccc1)C1CCCCC1 (centres unmarked) [oxybutynin, 4-diethylaminobut-2-ynyl 2-cyclohexyl-2-hydroxy-2-phenylethanoate]",brain penetration,[13],presence of radiolabel in the brain
"O=C(O[C@H]1CN2CCC1CC2)N1CCc2ccccc2[C@@H]1c1ccccc1 [solifenacin, (1S)-(3R)-1-azabicyclo[2.2.2]oct-3-yl 3,4-dihydro-1-phenyl-2(1H)-iso-quinolinecarboxylate]",antagonism of otenzepad-induced diarrhea (fecal pellets),[14],dose-dependently antagonized the diarrhea
same,effect of solifenacin on cognitive response to otenzepad (percentage of alternation),[3]; solifenacin pre-treatment 30 min before otenzepad,did not affect cognitive response to otenzepad
"O=C(O[C@H]1C[C@H]2CC[C@@H](C1)[N+]21CCCC1)C(O)(c1ccccc1)c1ccccc1 [trospium chloride, azoniaspiro[33-benziloyloxy-(1α,5α)-nortropane-8,1′-pyrrolidine] (trospium) chloride]",average plasma half-life,[15],about 18 hours
